Measured values reported in patent publication US10550105B2 (Ribon Therapeutics Inc., priority 2018, dated 2020).

The molecules below were run against PARP7 (Homo sapiens (Human), UniProt Q7Z3E1) (assay: Enzymatic assay for inhibition of PARP7: TR-FRET displacement of biotinylated Probe A from the TIPARP active site). Details: Table A-1.
Type: binding
Method in brief: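 TR-FRET, ex 320 nm / em 615 and 665 nm. Signal ratio reflects complex formation.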

PARP7, sequence (Q7Z3E1 whole entry): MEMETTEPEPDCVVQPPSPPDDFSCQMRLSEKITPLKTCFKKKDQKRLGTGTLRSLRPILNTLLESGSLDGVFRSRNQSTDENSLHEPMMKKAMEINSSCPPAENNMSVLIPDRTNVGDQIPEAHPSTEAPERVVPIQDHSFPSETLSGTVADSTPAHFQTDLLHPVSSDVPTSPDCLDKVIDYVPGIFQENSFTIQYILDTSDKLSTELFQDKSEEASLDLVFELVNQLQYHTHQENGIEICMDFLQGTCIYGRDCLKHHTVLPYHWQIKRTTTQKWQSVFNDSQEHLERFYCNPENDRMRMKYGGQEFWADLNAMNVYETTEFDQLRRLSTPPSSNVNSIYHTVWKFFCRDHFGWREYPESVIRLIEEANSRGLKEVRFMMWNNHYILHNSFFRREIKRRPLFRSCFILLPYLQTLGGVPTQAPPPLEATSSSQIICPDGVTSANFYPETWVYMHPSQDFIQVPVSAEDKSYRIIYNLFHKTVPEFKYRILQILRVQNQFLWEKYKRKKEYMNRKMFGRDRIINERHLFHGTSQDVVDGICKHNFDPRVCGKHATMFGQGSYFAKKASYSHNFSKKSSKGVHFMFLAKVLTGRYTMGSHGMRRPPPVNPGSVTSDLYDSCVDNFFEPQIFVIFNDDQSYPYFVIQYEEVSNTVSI

Row | IC50 | Molecule
1 | < 100 nM | N#Cc1cnc(N2CCN(C(=O)c3cccc(OC[C@@H]4CCCN4c4cn[nH]c(=O)c4C(F)(F)F)c3)CC2)cn1 [Example 443, (S)-5-(4-(3-((1-(6-Oxo-5-(trifluoromethyl)-1,6-dihydropyridazin-4-yl)pyrrolidin-2-yl)methoxy)benzoyl)piperazin-1-yl)pyrazine-2-carbonitrile]
2 | < 100 nM | N#Cc1ccc(N2CCN(C(=O)CCOCC(CO)Nc3cn[nH]c(=O)c3C(F)(F)F)CC2)nc1 (centres unmarked) [Example 529, 6-[4-[3-(3-Hydroxy-2-[[6-oxo-5-(trifluoromethyl)-1,6-dihydropyridazin-4-yl]amino]propoxy)propanoyl]piperazin-1-yl]pyridine-3-carbonitrile]
3 | < 100 nM | N#Cc1ccc(N2CCN(C(=O)C[C@@H]3CC[C@@H](CNc4cn[nH]c(=O)c4C(F)(F)F)O3)CC2)nc1 (single isomer, unassigned) [Example 581 Isomer B]
4 | < 100 nM | C[C@@H](OCCC(=O)N1CCN(c2ccc(C#N)cn2)CC1)[C@@H]1CCCN1c1cn[nH]c(=O)c1C(F)(F)F [Example 140A, 6-(4-[3-[(1R)-1-[(2S)-1-[6-oxo-5-(trifluoromethyl)-1,6-dihydropyridazin-4-yl]pyrrolidin-2-yl]ethoxy]propanoyl]piperazin-1-yl)pyridine-3-carbonitrile]
5 | ≥ 1000 nM | N#Cc1ccc(N2CCC3(CCN(C(=O)CCOC[C@@H]4CCCN4c4cn[nH]c(=O)c4C(F)(F)F)CC3)C2)nc1 [Example 104, 6-[8-(3-[[(2S)-1-[6-oxo-5-(trifluoromethyl)-1,6-dihydropyridazin-4-yl]pyrrolidin-2-yl]methoxy]propanoyl)-2,8-diazaspiro[4.5]decan-2-yl]pyridine-3-carbonitrile]
6 | < 100 nM | N#Cc1ccc(N2CCN(C(=O)CCOC[C@H](Cc3ccccc3)Nc3cn[nH]c(=O)c3C(F)(F)F)CC2)nc1 [Example 515B]
7 | < 100 nM | Cc1cnc(N2CCN(C(=O)c3cccc(OC[C@@H]4CCCN4c4cn[nH]c(=O)c4C(F)(F)F)c3)CC2)nc1 [Example 447, (S)-5-(2-((3-(4-(5-Methylpyrimidin-2-yl)piperazine-1-carbonyl)phenoxy)methyl)pyrrolidin-1-yl)-4-(trifluoromethyl)pyridazin-3(2H)-one]
8 | < 100 nM | N#Cc1ccc(N2CCN(C(=O)CCOC[C@@H]3c4ccccc4CN3c3cn[nH]c(=O)c3Cl)CC2)nc1 [Example 413, (S)-6-(4-(3-((2-(5-Chloro-6-oxo-1,6-dihydropyridazin-4-yl)isoindolin-1-yl)methoxy)propanoyl)piperazin-1-yl)nicotinonitrile]
9 | < 100 nM | N#Cc1ccc(N2CCN(C(=O)c3cccc(OCC4CCCN4c4cn[nH]c(=O)c4C(F)(F)F)c3)CC2)nc1 (centres unmarked) [Example 435, 6-(4-(3-((1-(6-Oxo-5-(trifluoromethyl)-1,6-dihydropyridazin-4-yl)pyrrolidin-2-yl)methoxy)benzoyl)piperazin-1-yl)nicotinonitrile]
10 | < 100 nM | O=C(CCOC[C@H](Nc1cn[nH]c(=O)c1C(F)(F)F)[C@H]1CCOC1)N1CCN(c2ncc(C(F)(F)F)cn2)CC1 (single isomer, unassigned) [Example 614 Isomer B]
11 | < 100 nM | O=C(CCNC[C@@H]1c2ccccc2CN1c1cn[nH]c(=O)c1C(F)(F)F)N1CCN(c2ccc(C(F)(F)F)cn2)CC1 [Example 629, (S)-5-(1-(((3-Oxo-3-(4-(5-(trifluoromethyl)pyridin-2-yl)piperazin-1-yl)propyl)amino)methyl)isoindolin-2-yl)-4-(trifluoromethyl)pyridazin-3(2H)-one]
12 | < 100 nM | O=c1[nH]ncc(N2Cc3cc(F)c(CNC4CCNCC4)cc3C2)c1C(F)(F)F [Example 23, 5-(5-fluoro-6-[[(piperidin-4-yl)amino]methyl]-2,3-dihydro-1H-isoindol-2-yl)-4-(trifluoromethyl)-2,3-dihydropyridazin-3-one]
13 | < 100 nM | C[C@@H](COCCC(=O)N1CCN(c2ncc(C(F)(F)F)cn2)CC1)Sc1cn[nH]c(=O)c1Br [Example 700, (S)-4-Bromo-5-((1-(3-oxo-3-(4-(5-(trifluoromethyl)pyrimidin-2-yl)piperazin-1-yl)propoxy)propan-2-yl)thio)pyridazin-3(2H)-one]
14 | < 100 nM | O=c1[nH]ncc(N2Cc3ccccc3C2)c1C(F)(F)F [Example 160, 5-(Isoindolin-2-yl)-4-(trifluoromethyl)pyridazin-3(2H)-one]
15 | 100 to 1000 nM | NC1CCCN(c2cccc3c2CN(c2cn[nH]c(=O)c2C(F)(F)F)C3)C1 (centres unmarked) [Example 301, 5-(4-(3-Aminopiperidin-1-yl)isoindolin-2-yl)-4-(trifluoromethyl)pyridazin-3(2H)-one]
16 | < 100 nM | O=c1[nH]ncc(N2Cc3cccc(NCc4ccncc4)c3C2)c1C(F)(F)F [Example 266, 5-(4-((Pyridin-4-ylmethyl)amino)isoindolin-2-yl)-4-(trifluoromethyl)pyridazin-3(2H)-one]
17 | < 100 nM | CN(C)C1CCN(c2cccc3c2CN(c2cn[nH]c(=O)c2C(F)(F)F)C3)C1 (centres unmarked) [Example 285, 5-(4-(3-(Dimethylamino)pyrrolidin-1-yl)isoindolin-2-yl)-4-(trifluoromethyl)pyridazin-3(2H)-one]
18 | 100 to 1000 nM | N#Cc1ccc(N2CCN(C(=O)c3cccc(OCC4CCCCN4c4cn[nH]c(=O)c4C(F)(F)F)c3)CC2)nc1 (centres unmarked) [Example 40, 6-(4-[[3-([1-[6-oxo-5-(trifluoromethyl)-1,6-dihydropyridazin-4-yl]piperidin-2-yl]methoxy)phenyl]carbonyl]piperazin-1-yl)pyridine-3-carbonitrile]
19 | < 100 nM | N#Cc1ccc(N2CCN(C(=O)CCOC[C@@H]3C[C@H](N)CN3c3cn[nH]c(=O)c3C(F)(F)F)CC2)nc1 [Example 485, 6-(4-(3-(((2S,4S)-4-Amino-1-(6-oxo-5-(trifluoromethyl)-1,6-dihydropyridazin-4-yl)pyrrolidin-2-yl)methoxy)propanoyl)piperazin-1-yl)nicotinonitrile]
20 | < 100 nM | CC(=O)N1CCC(NCc2cc3c(cc2F)CN(c2cn[nH]c(=O)c2C(F)(F)F)C3)CC1 [Example 24, 5-(5-[[(1-acetylpiperidin-4-yl)amino]methyl]-6-fluoro-2,3-dihydro-1H-isoindol-2-yl)-4-(trifluoromethyl)-2,3-dihydropyridazin-3-one]
21 | 100 to 1000 nM | COC[C@@H](CO[C@@H](C)CC(=O)N1CCN(c2ccc(C#N)cn2)CC1)Oc1cn[nH]c(=O)c1C(F)(F)F (single isomer, unassigned) [Example 571 Isomer B]
22 | 100 to 1000 nM | N#Cc1ccc(N2CCC3(CC2)CN(C(=O)CCOC[C@@H]2CCCN2c2cn[nH]c(=O)c2C(F)(F)F)C3)nc1 [Example 105, 6-[2-(3-[[(2S)-1-[6-oxo-5-(trifluoromethyl)-1,6-dihydropyridazin-4-yl]pyrrolidin-2-yl]methoxy]propanoyl)-2,7-diazaspiro[3.5]nonan-7-yl]pyridine-3-carbonitrile]
23 | 100 to 1000 nM | C[C@@H](CNCCC(=O)N1CCN(c2ncc(C(F)(F)F)cn2)CC1)Oc1cn[nH]c(=O)c1C(F)(F)F [Example 615, (S)-5-((1-((3-Oxo-3-(4-(5-(trifluoromethyl)pyrimidin-2-yl)piperazin-1-yl)propyl)amino)propan-2-yl)oxy)-4-(trifluoromethyl)pyridazin-3(2H)-one]
24 | < 100 nM | O=C(C[C@H]1CC[C@H](CNc2cn[nH]c(=O)c2C(F)(F)F)O1)N1CCN(c2ncc(Cl)cn2)CC1 (single isomer, unassigned) [Example 567 Isomer D]
25 | < 100 nM | CC1CN(c2ccc(C#N)cn2)CCN1C(=O)CCOC[C@@H]1CCCN1c1cn[nH]c(=O)c1C(F)(F)F (stereo partly drawn) [Example 473, 6-(3 -Methyl-4-(3-(((S)-1-(6-oxo-5-(trifluoromethyl)-1,6-dihydropyridazin-4-yl)pyrrolidin-2-yl)methoxy)propanoyl)piperazin-1-yl)nicotinonitrile]
26 | < 100 nM | N#Cc1ccc(N2CCN(C(=O)c3cccc(OCCNc4cn[nH]c(=O)c4C(F)(F)F)c3)CC2)nc1 [Example 41, 6-(4-[[3-(2-[[6-oxo-5-(trifluoromethyl)-1,6-dihydropyridazin-4-yl]amino]ethoxy)phenyl]carbonyl]piperazin-1-yl)pyridine-3-carbonitrile]
27 | ≥ 1000 nM | CC(=O)N1CCN(C(=O)CCOC[C@H]2c3ccccc3CN2c2cn[nH]c(=O)c2C(F)(F)F)CC1 [Example 420, (R)-5-(1-((3-(4-Acetylpiperazin-1-yl)-3-oxopropoxy)methyl)isoindolin-2-yl)-4-(trifluoromethyl)pyridazin-3(2H)-one]
28 | 100 to 1000 nM | CN1CCC(Oc2cccc3c2CN(c2cn[nH]c(=O)c2C(F)(F)F)C3)CC1 [Example 210, 5-(4-((1-Methylpiperidin-4-yl)oxy)isoindolin-2-yl)-4-(trifluoromethyl)pyridazin-3(2H)-one]
29 | < 100 nM | CC1CN(c2ccc(C#N)cn2)CCN1C(=O)c1cccc(OC[C@@H]2CCCN2c2cn[nH]c(=O)c2C(F)(F)F)c1 (stereo partly drawn) [Example 450, 6-(3-methyl-4-(3-(((S)-1-(6-Oxo-5-(trifluoromethyl)-1,6-dihydropyridazin-4-yl)pyrrolidin-2-yl)methoxy)benzoyl)piperazin-1-yl)nicotinonitrile]
30 | < 100 nM | CC(=O)N1CCC(Oc2ccnc3c2CN(c2cn[nH]c(=O)c2C(F)(F)F)C3)CC1 [Example 338, 5-(4-((1-Acetylpiperidin-4-yl)oxy)-5,7-dihydro-6H-pyrrolo[3,4-b]pyridin-6-yl)-4-(trifluoromethyl)pyridazin-3(2H)-one]

Row | Molecule | IC50
31 | CC[C@@H](COc1cn[nH]c(=O)c1C(F)(F)F)OCCC(=O)N1CCN(c2ncc(Cl)cn2)CC1 [Example 591 Isomer B, 5-[(2S)-2-[3-[4-(5-Chloropyrimidin-2-yl)piperazin-1-yl]-3-oxopropoxy]butoxy]-4-(trifluoromethyl)-2,3-dihydropyridazin-3-one] | < 100 nM
32 | 6-[4-(3-[[(1S,2S)-1-[[6-Oxo-5-(trifluoromethyl)-1-[[2-(trimethylsilyl)ethoxy]methyl]-1,6-dihydropyridazin-4-yl]amino]-2,3-dihydro-1H-inden-2-yl]oxy]propanoyl)piperazin-1-yl]pyridine-3-carbonitrile [Example 537 Isomer A] | ≥ 1000 nM
